The species entered for test [1] is Oryctolagus cuniculus. The test is described as follows: The compound was tested for inhibition of rabbit platelet aggregation induced by ADP, activity compared with PGE1 as standard was found to be <1/400. In kind it is functional.
The species named for test [2] is Oryctolagus cuniculus. The test is described as follows: The compound was tested for inhibition of rabbit platelet aggregation induced by ADP; activity compared with PGE1 as standard was found to be 1/1.2. The class given is functional.
Another test is filed under the species Canis familiaris. The test can be described thus: The compound was tested for inhibition of dog platelet aggregation induced by ADP. The class given is functional. Particulars: Canis lupus familiaris.
The species entered for test [3] is Oryctolagus cuniculus. The test is described as follows: The compound was tested for inhibition of rabbit platelet aggregation induced by arachidonic acid. The class given is functional.
The next test is filed under the species Homo sapiens. The test is described as follows: The compound was tested for inhibition of human platelet aggregation induced by ADP. In kind it is functional.
Test [4] is filed under the species Oryctolagus cuniculus. The test can be described thus: The compound was tested for inhibition of rabbit platelet aggregation induced by collagen. In kind it is functional.
The species entered for the next test is Rattus norvegicus. The test is described as follows: The compound was tested for inhibition of rat platelet aggregation induced by ADP. In kind it is functional.
The species entered for a further test is Cavia porcellus. The test can be described thus: The compound was tested for inhibition of guinea pig platelet aggregation induced by ADP. In kind it is functional.
The species entered for test [5] is Oryctolagus cuniculus. The test can be described thus: The compound was tested for inhibition of rabbit platelet aggregation induced by ADP. The class given is functional, organism-based.
The species named for test [6] is Oryctolagus cuniculus. The test can be described thus: The compound was tested for inhibition of rabbit platelet aggregation induced by ADP, activity compared with PGE1 as standard was found to be 1/80. In kind it is functional.
The species named for test [7] is Oryctolagus cuniculus. The test is described as follows: The compound was tested for inhibition of rabbit platelet aggregation induced by ADP, activity compared with PGE1 as standard was found to be 1/3.6. In kind it is functional.
Test [8] is filed under the species Oryctolagus cuniculus. The test is described as follows: The compound was tested for inhibition of rabbit platelet aggregation induced by ADP, activity compared with PGE1 as standard. The class given is functional.

For orientation: IC50 means the concentration needed to halve the response being measured. Low readings indicate inhibition by little substance, high ones a need for much substance.

≈ marks a conversion by molar mass, not a printed value.

`CCCC[C@H](C)C[C@H](O)/C=C/[C@@H]1[C@H]2C[C@H](CCOCC(=O)O)C[C@H]2C[C@@H]1O`: the Relative activity in the test listed under Oryctolagus cuniculus [1] is below 0.0025.

For `CCCC[C@H](C)C[C@H](O)/C=C/[C@@H]1[C@H]2C[C@H](CCOCC(=O)O)C[C@H]2C[C@H]1O`, the Relative activity in the test filed under Oryctolagus cuniculus [2] was 0.833. Further, the IC50 amounted to 0.0043 µg/mL (≈ 0.0112 µM) in the test listed under Canis familiaris; 0.0476 µg/mL (≈ 0.124 µM) in the test listed under Oryctolagus cuniculus [3]; 0.0125 µg/mL (≈ 0.0327 µM) in the test listed under Homo sapiens; 0.0183 µg/mL (≈ 0.0478 µM) in the test filed under Oryctolagus cuniculus [4]; 0.0098 µg/mL (≈ 0.0256 µM) in the test listed under Rattus norvegicus; 0.0031 µg/mL (≈ 0.0081 µM) in the test listed under Cavia porcellus. Further, the IC50 in the test listed under Oryctolagus cuniculus [5] came to 0.0241 µg/mL (≈ 0.063 µM).

The compound `CCCC[C@H](C)C[C@@H](O)/C=C/[C@@H]1[C@H]2C[C@H](CCOCC(=O)O)C[C@H]2C[C@H]1O` gave a Relative activity in the test filed under Oryctolagus cuniculus [1] below 0.0025.

`CCCCC[C@H](O)/C=C/[C@@H]1[C@H]2C[C@H](CCCCC(=O)O)C[C@H]2C[C@H]1O` gave a Relative activity in the test listed under Oryctolagus cuniculus [6] of 0.0125.

Consider `CCCC[C@@H](C)C[C@H](O)/C=C/[C@@H]1[C@H]2C[C@H](CCOCC(=O)O)C[C@H]2C[C@H]1O`, for which the Relative activity in the test listed under Oryctolagus cuniculus [7] was found to be 0.278.

The compound `CCCCC[C@H](O)/C=C/[C@H]1[C@H](O)CC(=O)[C@@H]1CCCCCCC(=O)O` [ALPROSTADIL] yielded a Relative activity in the test listed under Oryctolagus cuniculus [8] of 1. Further, the IC50 in the test filed under Canis familiaris was found to be 0.0038 µg/mL (≈ 0.0107 µM); in the test filed under Oryctolagus cuniculus [3] it was 0.0359 µg/mL (≈ 0.101 µM); in the test filed under Homo sapiens, 0.0136 µg/mL (≈ 0.0384 µM); in the test filed under Oryctolagus cuniculus [4] it was 0.0132 µg/mL (≈ 0.0372 µM); in the test filed under Rattus norvegicus, 0.0344 µg/mL (≈ 0.097 µM); in the test listed under Cavia porcellus, 0.0025 µg/mL (≈ 0.00705 µM). The IC50 in the test listed under Oryctolagus cuniculus [5] was determined as 0.0207 µg/mL (≈ 0.0584 µM).

Values taken from ChEMBL document CHEMBL1127169, “Syntheses of new 3-oxa-methano-PGI1 derivatives and their biological properties” (Bioorg Med Chem Lett, 1993).
